# Key:
# Test in all cases: Multigene assay (QuantiGene Plex 2.0), mouse MEF cell line
# Assay type in all cases: cell-based
# Conditions in all cases: 6 hours post-compound treatment
# HSPA1a = system: HSPA1a
# Description: (§1) This assay used the QuantiGene Plex 2.0 Reagent System from Affymetrix. This assay combines the use of bDNA (branch DNA) and xMAP magnetic capture beads from Luminex Technologies to quantitatively and simultaneously detect multiple mRNA transcripts per well. The overall procedure was performed according to the QuantiGene Plex 2.0 Reagent System instruction manual from Affymetrix.
# (§2) Cells were seeded at a density of 12,000 cells/well in 96-well plates with an overnight incubation at 37° C., 5% CO2. Cells were treated with serially diluted compounds in a 7-point dose dependent manner. Cell lysis with 50% [v/v] Panomics Lysis Mixture (Lysis Mixture+10 μl/ml 25 Proteinase K) was performed 6 hours post-compound treatment. Lysed cells were heated at 50° C. to ensure appropriate lysing and the plates were then frozen at −80° C. Cell lysates, thawed at room temperature on the day of the assay, were pooled with mouse 8-gene multiplex probe sets and with 8 different sets of magnetic capture beads (Luminex Technology, Austin, Tex.) in a 100 μl/well volume. Biomek FX was used at every liquid transfer step. The eight plates containing lysate-probe-bead mixtures were incubated at 54° C.±1° C. on a shaking platform for an overnight incubation in the dark (18-20 hours). The following day the hybridization plates were compressed by transferring the hybridized lysates into a single magnetic capture plate. The plate was kept on a magnet to hold the beads and then washed with Panomics Wash Buffer 2.0 on a BioTek ELx405 select plate washer to remove any unbound sample. This step was followed by serial hybridizations and washings of the bDNA pre-amplifier (1 hour, 50° C.), bDNA amplifier (1 hour, 50° C.), label probe (1 hour, 50° C.), and streptavidin-phycoerythrin (SAPE, 30 minutes, room temperature). (Zhang, A. et al. Small interfering RNA and gene expression analysis using a multiplex branched DNA assay without RNA purification. J Biomol Screen 10, 549-56 (2005)). The plate was then washed with SAPE wash buffer to remove unbound SAPE and each well was analyzed with the Luminex FlexMap3D (Luminex, Austin, Tex.). SAPE fluorescence measured from each bead was proportional to the number of mRNA transcripts captured by the beads (Zheng, Z., Luo, Y. & McMaster, G. K. Sensitive and quantitative measurement of gene expression directly from a small amount of whole blood. Clin Chem 52, 1294-302 (2006)). Fold changes in gene expression were obtained for each gene per well by normalizing the raw data first to the DMSO control and then to a housekeeping gene (TBP-TATA binding protein or Tub1-alpha-tubulin).
# DDIT3 = system: DDIT3
# Description: as §1, §2
# BCL2 = system: BCL2
# Description: as §1, §2
# TUB1 = system: TUB1
# Description: as §1, §2
# HspA5 = system: HspA5
# Description: as §1, §2
# HMOX = system: HMOX
# Description: as §1, §2
# GCLM = system: GCLM
# Description: as §1, §2
compound,measurement,setting,value
CC(C)(C)c1n[nH]c2c1C(c1cccs1)C(C#N)=C(N)O2 (stereo not shown) [drawing 29/CMe3/H/H/S],HSPA1a gene induction,HSPA1a; Table 4b,− (− Indicates less than 2 fold induction)
same,DDIT3 gene induction,DDIT3; Table 4a,− (− Indicates less than 2 fold induction)
same,BCL2 gene induction,BCL2; Table 4b,− (− Indicates less than 2 fold induction)
same,TUB1 gene induction,TUB1; Table 4a,− (− Indicates less than 2 fold induction)
same,HspA5 gene induction,HspA5; Table 4b,− (− Indicates less than 2 fold induction)
same,HMOX gene induction,HMOX; Table 4b,+ (+ indicates a induction of greater than 2 fold)
same,GCLM gene induction,GCLM; Table 4a,+ (+ indicates a induction of greater than 2 fold)
CCCc1n[nH]c2c1C(C1CC=CCC1)C(C#N)=C(N)O2 (stereo not shown),HSPA1a gene induction,HSPA1a; Table 5,— (— Indicates less than 2 fold induction)
same,DDIT3 gene induction,DDIT3; Table 5,— (— Indicates less than 2 fold induction)
same,BCL2 gene induction,BCL2; Table 5,— (— Indicates less than 2 fold induction)
same,TUB1 gene induction,TUB1; Table 5,— (— Indicates less than 2 fold induction)
same,HspA5 gene induction,HspA5; Table 5,— (— Indicates less than 2 fold induction)
same,HMOX gene induction,HMOX; Table 5,+ (+ indicates a induction of greater than 2 fold)
same,GCLM gene induction,GCLM; Table 5,+ (+ indicates a induction of greater than 2 fold)
COC(=O)C1=C(C)Nc2c(c(=O)n(C)c(=O)n2C)C1c1ccc(F)cc1 (stereo not shown) [A],HSPA1a gene induction,HSPA1a; Table 6,— (— Indicates less than 2 fold induction)
same,DDIT3 gene induction,DDIT3; Table 6,+ (+ indicates a induction of greater than 2 fold)
same,BCL2 gene induction,BCL2; Table 6,+ (+ indicates a induction of greater than 2 fold)
same,TUB1 gene induction,TUB1; Table 6,— (— Indicates less than 2 fold induction)
same,HspA5 gene induction,HspA5; Table 6,— (— Indicates less than 2 fold induction)
same,HMOX gene induction,HMOX; Table 6,— (— Indicates less than 2 fold induction)
same,GCLM gene induction,GCLM; Table 6,— (— Indicates less than 2 fold induction)
COCc1n[nH]c2c1C(c1cccs1)C(C#N)=C(N)O2 (stereo not shown) [drawing 29/CH2OMe/H/H/S],HSPA1a gene induction,HSPA1a; Table 4b,− (− Indicates less than 2 fold induction)
same,DDIT3 gene induction,DDIT3; Table 4a,− (− Indicates less than 2 fold induction)
same,BCL2 gene induction,BCL2; Table 4b,− (− Indicates less than 2 fold induction)
same,TUB1 gene induction,TUB1; Table 4a,− (− Indicates less than 2 fold induction)
same,HspA5 gene induction,HspA5; Table 4b,− (− Indicates less than 2 fold induction)
same,HMOX gene induction,HMOX; Table 4b,+ (+ indicates a induction of greater than 2 fold)
same,GCLM gene induction,GCLM; Table 4a,+ (+ indicates a induction of greater than 2 fold)
Cc1n[nH]c2c1C(c1cccs1)C(C#N)=C(N)O2 (stereo not shown) [drawing 29/Me/H/H/S],HSPA1a gene induction,HSPA1a; Table 4b,− (− Indicates less than 2 fold induction)
same,DDIT3 gene induction,DDIT3; Table 4a,− (− Indicates less than 2 fold induction)
same,BCL2 gene induction,BCL2; Table 4b,− (− Indicates less than 2 fold induction)
same,TUB1 gene induction,TUB1; Table 4a,− (− Indicates less than 2 fold induction)
same,HspA5 gene induction,HspA5; Table 4b,− (− Indicates less than 2 fold induction)
same,HMOX gene induction,HMOX; Table 4b,+ (+ indicates a induction of greater than 2 fold)
same,GCLM gene induction,GCLM; Table 4a,+ (+ indicates a induction of greater than 2 fold)
COCC1=C(C(=O)OCC(C)C)C(c2ccc(F)cc2)C2=C(CC(c3cccs3)CC2=O)N1 (stereo not shown) [drawing 26/CH2OMe/COOCH2CHMe2/p-F],HSPA1a gene induction,HSPA1a; Table 1b,− (− Indicates less than 2 fold induction)
same,DDIT3 gene induction,DDIT3; Table 1a,+ (+ indicates a induction of greater than 2 fold)
same,BCL2 gene induction,BCL2; Table 1b,− (− Indicates less than 2 fold induction)
same,TUB1 gene induction,TUB1; Table 1a,− (− Indicates less than 2 fold induction)
same,HspA5 gene induction,HspA5; Table 1b,− (− Indicates less than 2 fold induction)
same,HMOX gene induction,HMOX; Table 1b,+ (+ indicates a induction of greater than 2 fold)
same,GCLM gene induction,GCLM; Table 1a,− (− Indicates less than 2 fold induction)
Cc1ccsc1C1C(C#N)=C(N)Oc2[nH]nc(C(C)(C)C)c21 (stereo not shown) [drawing 29/CMe3/H/Me/S],HSPA1a gene induction,HSPA1a; Table 4b,− (− Indicates less than 2 fold induction)
same,DDIT3 gene induction,DDIT3; Table 4a,− (− Indicates less than 2 fold induction)
same,BCL2 gene induction,BCL2; Table 4b,− (− Indicates less than 2 fold induction)
same,TUB1 gene induction,TUB1; Table 4a,− (− Indicates less than 2 fold induction)
same,HspA5 gene induction,HspA5; Table 4b,− (− Indicates less than 2 fold induction)
same,HMOX gene induction,HMOX; Table 4b,+ (+ indicates a induction of greater than 2 fold)
same,GCLM gene induction,GCLM; Table 4a,+ (+ indicates a induction of greater than 2 fold)
CCn1c2c(c(=O)[nH]c1=O)C(c1cccc3ccccc13)C1=C(N2)c2ccccc2C1=O (stereo not shown) [B],HSPA1a gene induction,HSPA1a; Table 6,+ (+ indicates a induction of greater than 2 fold)
same,DDIT3 gene induction,DDIT3; Table 6,+ (+ indicates a induction of greater than 2 fold)
same,BCL2 gene induction,BCL2; Table 6,— (— Indicates less than 2 fold induction)
same,TUB1 gene induction,TUB1; Table 6,— (— Indicates less than 2 fold induction)
same,HspA5 gene induction,HspA5; Table 6,— (— Indicates less than 2 fold induction)
same,HMOX gene induction,HMOX; Table 6,+ (+ indicates a induction of greater than 2 fold)
same,GCLM gene induction,GCLM; Table 6,— (— Indicates less than 2 fold induction)
N#CC1=C(N)Oc2[nH]nc(C34CC5CC(CC(C5)C3)C4)c2C1c1cccs1 (stereo not shown) [drawing 29/1-Adamantyl/H/H/S],HSPA1a gene induction,HSPA1a; Table 4b,− (− Indicates less than 2 fold induction)
same,DDIT3 gene induction,DDIT3; Table 4a,− (− Indicates less than 2 fold induction)
same,BCL2 gene induction,BCL2; Table 4b,− (− Indicates less than 2 fold induction)
same,TUB1 gene induction,TUB1; Table 4a,− (− Indicates less than 2 fold induction)
same,HspA5 gene induction,HspA5; Table 4b,− (− Indicates less than 2 fold induction)
same,HMOX gene induction,HMOX; Table 4b,+ (+ indicates a induction of greater than 2 fold)
same,GCLM gene induction,GCLM; Table 4a,+ (+ indicates a induction of greater than 2 fold)
CCCc1n[nH]c2c1C(c1ccc(C)o1)C(C#N)=C(N)O2 (stereo not shown) [drawing 29/(CH2)2Me/Me/H/O],HSPA1a gene induction,HSPA1a; Table 4b,− (− Indicates less than 2 fold induction)
same,DDIT3 gene induction,DDIT3; Table 4a,− (− Indicates less than 2 fold induction)
same,BCL2 gene induction,BCL2; Table 4b,− (− Indicates less than 2 fold induction)
same,TUB1 gene induction,TUB1; Table 4a,− (− Indicates less than 2 fold induction)
same,HspA5 gene induction,HspA5; Table 4b,− (− Indicates less than 2 fold induction)
same,HMOX gene induction,HMOX; Table 4b,+ (+ indicates a induction of greater than 2 fold)
same,GCLM gene induction,GCLM; Table 4a,+ (+ indicates a induction of greater than 2 fold)
COc1ccccc1C1C(C#N)=C(C)NC2=C1C(=O)CC(c1ccccc1)C2 (stereo not shown) [drawing 27/Me/CN/o-OMe/H],HSPA1a gene induction,HSPA1a; Table 2b,+ (+ indicates a induction of greater than 2 fold)
same,DDIT3 gene induction,DDIT3; Table 2a,− (− Indicates less than 2 fold induction)
same,BCL2 gene induction,BCL2; Table 2b,− (− Indicates less than 2 fold induction)
same,TUB1 gene induction,TUB1; Table 2a,− (− Indicates less than 2 fold induction)
same,HspA5 gene induction,HspA5; Table 2b,− (− Indicates less than 2 fold induction)
same,HMOX gene induction,HMOX; Table 2b,− (− Indicates less than 2 fold induction)
same,GCLM gene induction,GCLM; Table 2a,− (− Indicates less than 2 fold induction)
COc1ccc(C2CC(=O)C3=C(C2)NC(C)=C(C(=O)OCC(C)C)C3c2cccc(F)c2)cc1 (stereo not shown) [drawing 27/Me/COOCH2CHMe2/m-F/OMe],HSPA1a gene induction,HSPA1a; Table 2b,+ (+ indicates a induction of greater than 2 fold)
same,DDIT3 gene induction,DDIT3; Table 2a,− (− Indicates less than 2 fold induction)
same,BCL2 gene induction,BCL2; Table 2b,+ (+ indicates a induction of greater than 2 fold)
same,TUB1 gene induction,TUB1; Table 2a,− (− Indicates less than 2 fold induction)
same,HspA5 gene induction,HspA5; Table 2b,− (− Indicates less than 2 fold induction)
same,HMOX gene induction,HMOX; Table 2b,+ (+ indicates a induction of greater than 2 fold)
same,GCLM gene induction,GCLM; Table 2a,+ (+ indicates a induction of greater than 2 fold)
CC1=C(C(=O)OCC(C)C)C(c2ccccc2OC(C)C)C2=C(CC(c3ccccc3)CC2=O)N1 (stereo not shown) [drawing 27/Me/COOCH2CHMe2/o-OCHMe2/H],HSPA1a gene induction,HSPA1a; Table 2b,− (− Indicates less than 2 fold induction)
same,DDIT3 gene induction,DDIT3; Table 2a,+ (+ indicates a induction of greater than 2 fold)
same,BCL2 gene induction,BCL2; Table 2b,− (− Indicates less than 2 fold induction)
same,TUB1 gene induction,TUB1; Table 2a,− (− Indicates less than 2 fold induction)
same,HspA5 gene induction,HspA5; Table 2b,− (− Indicates less than 2 fold induction)
same,HMOX gene induction,HMOX; Table 2b,− (− Indicates less than 2 fold induction)
same,GCLM gene induction,GCLM; Table 2a,− (− Indicates less than 2 fold induction)
